The nature of assay [1]: Reintroduction of causal food allergen in food allergy patients. To be noted: baseline patients treated with one drug alone. The assay is classed as in vivo, human. The text has this: Allergens tested came from either […], or ALLERBIO.
The direct test with the Nutella® was strongly positive for allergy. This patient was hospitalized in two occasions for the same dramatic allergic reaction to Nutella® spread. Furthermore, the patient presented allergies to pneumoallergens.
Continuation of the above treatment for over 8 months afforded reversal of allergic and digestive symptoms due to food allergy.
The patient under study had survived two cases of anaphylactic shock due to ingestion of shrimps. […] Later the patient was able to ingest five shrimps without any local signs and no global reaction.
Baseline patients had signs of food allergies and the food allergy symptoms were not adequately managed with an H1 antagonist and cromoglycate. A group of 15 patients presenting signs of food allergies is tested with allergens such as the following: peanut, milk, tomato, potato, flour of wheat, soybean, fish, and shrimp. Allergens tested came from either […], or ALLERBIO.
All patients had history of hospitalization and reactions such as Quincke's edema and asthma crisis. Most of the causal allergens were peanut (six patients), egg (four patients) and soybean (five patients) of them (with other several positive food allergens at different degrees of reaction). […]

Assay [2] concerns human TF1 cells that express H4R. Nature of the assay: TF1 cell proliferation assay (GM-CSF promoted). Format: cell-based. The protocol:
Tritoqualine was tested on a cell proliferation assay using human TF1 cells that express H4R.
TF1 cell proliferation is promoted using granulocyte/macrophage colony-stimulating factor (GM-CSF). In this cell proliferation model H4R agonists inhibit cell proliferation. Clobenpropit (CB), a known H4R agonist at a dose of 10^−5M (10 μM) was used as a known cell proliferation inhibition control. […] Each experiment used 100,000 TF1 cells/mL incubated for three days with GM-CSF (10 ng/mL). After addition of TRQ in the range of 10^−5M (10 μM) to 10^−7 M (0.1 μM), and incubation for 3 days, cell proliferation was assessed and compared to that of 10 μM CB.

Assay [3] is described as follows: Spirometry parameter FEV1 in COPD patients. Format: in vivo, human. Further details: T0 (initial visit) FEV1: unit not given here. As to the method: At the initial visit to the physician (T0), the patients were examined and the spirometry parameter FEV1 was recorded. Tritoqualine 200 mg/day were added to the patient's existing drug therapy. […] During each visit the patient's overall health and the FEV1 parameter was assessed by spirometry. […]

The test system of assay [4] is hematopoietic progenitor cells. The assay can be described thus: CFU of hematopoietic progenitor cells in the presence of Ara-C. To be noted: listed as TRQ. The assay is classed as cell-based. The text has this: Ara-C is a chemotherapeutic agent that kills cancel cells (or actively dividing cells).
The target in another assay is T1, H4R (Mus musculus, UniProt Q91ZY2).
T1 construct: endogenous in cells; host or cells: freshly sorted c-kit+ haematopoietic progenitor cells
T1 sequence (Q91ZY2 1-391): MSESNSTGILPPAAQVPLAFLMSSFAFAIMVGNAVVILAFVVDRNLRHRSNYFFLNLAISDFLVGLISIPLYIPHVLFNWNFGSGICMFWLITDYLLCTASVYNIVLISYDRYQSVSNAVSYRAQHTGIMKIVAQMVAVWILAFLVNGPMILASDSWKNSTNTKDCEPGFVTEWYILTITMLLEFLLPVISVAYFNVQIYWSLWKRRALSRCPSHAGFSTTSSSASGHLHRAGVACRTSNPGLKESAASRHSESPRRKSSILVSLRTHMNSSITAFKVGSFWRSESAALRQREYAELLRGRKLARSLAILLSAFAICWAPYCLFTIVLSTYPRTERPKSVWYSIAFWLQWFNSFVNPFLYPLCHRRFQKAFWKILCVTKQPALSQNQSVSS
Nature of the assay: Cell cycle status after H4R silencing with siRNA. Format: cell-based. The conditions noted are these: 10 μM; H4R siRNA transfected c-kit+ cells. The protocol: H4R silencing was performed with freshly sorted c-kit^+ cells. For transfection, 3 μl of HiPerFect reagent (Qiagen; Courtaboeuf, France) and 4 μl ([…]) of human and 8 μl (80 pmol) of murine H4R siRNA, scrambled FITC-labeled or unconjugated control siRNAs (all from Santa Cruz Biotechnology) were incubated in 50 μl x-vivo medium (Cambrex; East Rutherford, N.J.) for 20 min at room temperature. The mixture was then added to 50 μl of cell suspension at a final concentration of 10^6 cells/ml and incubated for 20 h, when transfection efficiency was verified with scrambled FITC-conjugated siRNA. Cells were then centrifuged and resuspended at a concentration of 10^5 cells/ml in StemSpan medium with growth factor cocktail. The extinction of H4R protein expression was ascertained by FACS analysis after 24 h. After 3 days of culture with or without tritoqualine (10 μM) or Clobenpropit (10 μM) cells were counted and their viability was assessed by trypan blue exclusion. The cell cycle status was assessed after an overnight incubation.

Assay [5] concerns Colony Forming Cells (CFC, mouse medullary cells C57B1/6) expressing H4R. Nature of the assay: Cell cycle analysis of haematopoietic progenitor cells (propidium iodide, FACS). The conditions noted are these: 10 μM. Format: cell-based. The protocol: Haematopoietic progenitor cells were incubated for 1-3 day(s) with a cocktail of growth factors (IL-3, 10 ng/ml, IL-6 10 ng/ml), […] (50 ng/ml) in the culture medium StemSpan® (without serum) in the presence and absence of TRQ and H4R antagonist (JNJ7777120, Sigma Aldrich).
Cells were later stained with propidium iodide (PI) for the analysis of the cell cycle according to the following protocol:
2×10^6 cells/ml were labelled with CD1 17-FITC for 20 min in PBS, then washed in PBS and stained with PBS 1% formaldehyde, without methanol, at 4° C. for 5 min and again washed in PBS.
The cells were then lysed with 1 ml of PVTritonX100 and RNAse without DNAse (0.2 mcg/ml), PI (20 mcg/ml), and incubated in PBS for 30 min at ambient temperature.
The lysed cells were analyzed with FACS scan (FL2-area IFL2-width) for cell cycle analysis and FL1 for labelling of cell Surface.
10^6 cells enriched in haematopoietic stem cells were incubated in 2 ml of CFSE […] in PBS 10 min, 37° C. The reaction was stopped by the addition of cold PBS in excess (5×) and centrifuged for 5 min at 1700 rpm.
Cells were resuspended in the culture medium StemSpan® (without serum) and stimulated with the growth Factor cocktail, and analyze in FACs scan (FL1) after 72 hours incubation.

Structures are written as SMILES. Several values for one entry are separate records, joined by “and”; a condition that tells them apart may be missing. Equal entries are not always repeated. Entries after “also recorded” stand apart in the source; their conditions may differ.

For the compound `CCOc1c(N)c2c(c(OCC)c1OCC)C(C1c3c(cc4c(c3OC)OCO4)CCN1C)OC2=O` (racemic) [Tritoqualine, 7-Amino-4,5,6-triethoxy-3-(5,6,7,8-tetrahydro-4-methoxy-6-methyl-1,3-dioxolo[4,5-g]isoquinolin-5-yl) phthalide], the “management of food allergy symptoms with the single drug” value in assay [1] is “did not yield satisfactory management”. Moreover, the “inhibition of cell proliferation” value in assay [2] (0.1 μM) is on record as “no inhibition of cell proliferation”. In assay [2] (Homo sapiens, TF-1, 72 h, 10 μM, 3 days, three separate assays (n=3)), this compound returned an inhibition at 10 µM of 49%. The compound further displayed an inhibition at 1 µM in assay [2] (Homo sapiens, TF-1, 1 μM) of 18%. Moreover, the “T0 (initial visit) FEV1” value in assay [3] (Example 12, 13 COPD patients, one line per patient, baseline before Tritoqualine) is 1.00 (2×) and 2.39 and 1.86 (2×) and 1.60 and 1.53 and 1.64 and 1.32 and 0.82 and 0.58 and 2.28 and 1.30. In assay [3] (Example 12, 13 patients, P=0.0012), the “improvement of FEV1 from visit T0 to T1 (paired t-test)” value is “statistically significant improvement”. Besides, the “Mean, Visit T1” value in assay [3] (Example 12, N 13, 6-8 weeks of Tritoqualine 200 mg/day, FEV1 relative to expected normal value) stood at 77.69. In addition, in assay [3] (Example 12, N 13, baseline, FEV1 relative to expected normal value), the “Mean, Visit T0” value was determined as 65.3. In addition, the “FEV1 as percent of expected normal value” was 50.76% and 97.74% and 85.50% and 71.77% and 92.96% and 72.24% and 87.41% and 64.90% and 68.42% and 43.53% and 88.24% and 88.89% and 105.12% in assay [3] (Example 12, per patient, 6-8 weeks of Tritoqualine 200 mg/day); 50.76% and 89.85% and 47.33% and 76.56% and 71.83% and 62.36% and 74.07% and 53.88% and 53.95% and 34.12% and 83.82% and 72.22% and 86.51% in assay [3] (Example 12, per patient, baseline). Moreover, the “T2 (6-8 weeks follow-up visit) FEV1 normalized” value in assay [3] (Example 12, per patient, Tritoqualine 200 mg/day added to existing therapy) was 1.00 and 2.60 and 3.36 and 1.50 and 1.98 and 1.90 and 1.18 and 1.59 and 1.04 and 0.74 and 2.40 and 1.60 and 2.26. Besides, the “protection of cells / cell CFU in the presence of Ara-C” value in assay [4] is listed as “provides protection to the cells; also recorded: cell CFU remains high”.

As to `CCOc1c(N)c2c(c(OCC)c1OCC)[C@H]([C@H]1c3c(cc4c(c3OC)OCO4)CCN1C)OC2=O` [E1], the “activity inhibiting the cell cycle at the G0/G1 phase after H4R siRNA” value at H4R was “reversed”. Further, the “haematopoietic progenitor cells blocked (G0/G1)” value in assay [5] was “Approximately 48%”.

With `CCOc1c(N)c2c(c(OCC)c1OCC)[C@@H]([C@@H]1c3c(cc4c(c3OC)OCO4)CCN1C)OC2=O` [E2], the “activity inhibiting the cell cycle at the G0/G1 phase after H4R siRNA” value at H4R is listed as “reversed”. Besides, the “haematopoietic progenitor cells blocked (G0/G1)” value in assay [5] is “Approximately 60%”.

One may read the inhibition as how much of the control response was suppressed.

The values above are taken from patent US8207188B2, “Treatment of diseases modulated by a H4 receptor agonist” (priority 2006, dated 2012).
